{"source": "patent US20230406825A1", "about": "“COMPOUNDS, COMPOSITIONS THEREOF, AND METHODS FOR TREATING ER+ BREAST CANCER” (The Board of Regents of The University of Texas System, priority 2020, published 2023)", "key": {"[1]": {"system": "ER− breast cancer cell lines (triple negative breast cancer cell line)", "assay": "Cell Titer-Glo dose dependent viability assay, ER- breast cancer cell lines", "type": "cell-based", "procedure": "(§1) To measure the effects of TC-E 5008 on cell viability, breast cancer cells were seeded in 96-well plates (4×10^3 cells/well) in RPMI medium containing 10% fetal bovine serum. After an overnight incubation, cells were treated with varying concentrations of TC-E 5008 or other mutant IDH1 inhibitors for 72 hours. Viability was measured using Cell Titer-Glo Luminescent Cell Viability Assay (Promega) in 96-well, flat, clear-bottom, opaque-wall micro plates according to manufacturer's protocol. IC50 was less than […] in ER+ breast cancer cell lines and greater than […] in ER− breast cancer cell lines, as shown in the Figures.\n(§2) A compound having a structure in accordance with Formula II (sometimes referred to herein as “TC-E 5008”) was selected for validation with an integrated confidence score of 1362.6. Three commonly used ER-positive breast cancer cell lines MCF-7, ZR-75 and T-47D were used for in vitro validation."}, "[2]": {"system": "ER-positive breast tumors samples", "assay": "Patient-derived explant (PDE) ex vivo culture of primary breast tumors, Ki-67 staining", "type": "cell-based, human", "procedure": "Excised tissue samples were processed and cultured ex vivo. De-identified tumors were obtained from the University of Texas Southwest Tissue Repository after institutional review board approval. Briefly, tumor samples were incubated on gelatin sponges for 24 hours in culture medium containing 10% fetal bovine serum (hereafter “FBS”), followed by treatment with either vehicle, 10 μM TC-E 5008 for 72 hours. Representative tissues were fixed in 10% formalin at 4° C. overnight and subsequently processed into paraffin blocks. The sections were then processed for immunohistochemical analysis.\nIn order to further validate TC-E 5008, an ex vivo culture model of primary breast tumors was used—which allows for the validation of drugs on breast tumors in their native tissue architecture. Specifically, surgically resected breast tissues were sliced into small pieces and grown ex vivo for short term on a gelatin sponge in the absence or presence of desired compound (see FIG. 4). In order to test TC-E 5008 in a variety of ER-positive tumors, estrogen receptor positivity was the only inclusion criteria used for the breast tumor samples."}, "[3]": {"system": "ER+ breast cancer cell lines (MCF-7, ZR-75 and T-47D)", "assay": "Cell Titer-Glo dose dependent viability assay, ER+ breast cancer cell lines", "type": "cell-based", "procedure": "as §1, §2"}, "[4]": {"settings": "ER-positive tumor explants, 10 μM, 72 hours"}, "[5]": {"settings": "ER-positive tumor explants, 10 μM, 72 hours, versus untreated controls"}}, "note": "Entries after “also recorded” stand apart in the source; their conditions may differ.", "data": [{"smiles": "Cc1cc(Cc2ccccc2)n(O)c(=O)c1", "note": "[TC-E 5008]", "values": [{"measurement": "IC50", "setting": "[1]; ER− breast cancer cell lines, 72 hours, Cell Titer-Glo", "result": "> 10", "unit": "µM"}, {"measurement": "activity on proliferation", "setting": "[1]; triple negative breast cancer cell line, FIG. 2", "result": "showed less activity"}, {"measurement": "patients showing a reduction in Ki-67 staining (Partial responders)", "setting": "[2]; [4]", "result": "3/10"}, {"measurement": "patients showing a significant reduction (Complete responders)", "setting": "[2]; [4]", "result": "4/10"}, {"measurement": "patients with decreased proliferation (Ki-67 staining)", "setting": "[2]; [4]", "result": "7/10"}, {"measurement": "reduction in Ki-67 staining, Complete responders", "setting": "[2]; [5]", "result": "40-95%"}, {"measurement": "reduction in Ki-67 staining, Partial responders", "setting": "[2]; [5]", "result": "0-25%"}, {"measurement": "tumor tissues showing an increase in proliferation (Non-responders)", "setting": "[2]; compared to untreated controls, FIG. 7", "result": "Three"}, {"measurement": "response rate", "setting": "[2]; limited cohort of 10 ER-positive tumors", "result": 40, "unit": "%"}, {"measurement": "proliferative indices", "setting": "[2]; primary tumor explants cultured ex vivo, 10 μM, 72 hour", "result": "significant decrease in proliferative indices"}, {"measurement": "morphological changes in the patient tissues", "setting": "[2]; treated tissues compared to controls", "result": "did not observe morphological changes"}, {"measurement": "IC50", "setting": "[3]; ER+ breast cancer cell lines, 72 hours, Cell Titer-Glo", "result": "< 2", "unit": "µM"}, {"measurement": "anti-proliferative activity / proliferation", "setting": "[3]; ER-positive lines MCF-7, ZR-75 and T-47D, FIG. 1, 8, 9", "result": "anti-proliferative activity; also recorded: blocked proliferation of all three ER-positive breast cancer cell lines"}]}]}
